Columns and labels:
ATX activity in plasma = target: T1, ATX activity in plasma (Rattus norvegicus, UniProt Q64610); assay: Measurement of ATX activity in plasma (ex vivo), rat single administration test; set-up: species or system male Wistar rat
T1 construct: from tissue; host or cells: plasma of male Wistar rats after oral dosing
Experimental: [Measurement of ATX Activity in Plasma (Ex Vivo)]
A compound administration solution prepared by wet pulverization in a mixer mill (type: MM400) for 10 min and adjusting to a given concentration with 0.5% aqueous carboxymethylcellulose solution was orally administered to male Wistar rat (5-week-old when used) at 5 mL/kg. Blood samples were collected from the cervical vein over time at 8 to 24 hr after administration. The blood was heparin-treated using a micro blood collection tube Capiject (CJ-AL, TERUMO CORPORATION), and the plasma was separated by centrifugation (4° C., 12,000 rpm, for 2 min), and preserved at −80° C. The rats after blood sampling were euthanized by exsanguination from the caudal vena cava under isoflurane inhalation anesthesia. The measurement of ATX activity in plasma was evaluated using the concentration of choline in the plasma, which was liberated from lysophosphatidylcholine (substrate of ATX) by the lysophospholipase D activity of ATX, as an index. An equal amount of 2× assay buffer (200 mM Tris-HCl pH9.0, 10 mM MgCl2, 1 M NaCl, 0.1% Triton X-100) is added to plasma (12 μL) and reacted at 37° C. for 6 hr. The reaction mixture (10 μL) after reaction for 6 hr and 45 μL of reagent R^1 solution (100 mM Tris-HCl pH 8.0, 0.5 mM TOOS, 10 U/mL peroxidase, 0.01% Triton X-100) were added and blended and absorbance at 550-700 nm was measured and used as a prevalue. As the standard, choline chloride was used. 1 mM choline chloride was diluted with 2× assay buffer up to 7 steps in 2-fold serial dilution, R^1 solution was treated similarly and the absorbance was measured. Furthermore, 15 μL of reagent R^2 solution (100 mM Tris-HCl pH 8.0, 1 mM 4-aminoantipyrine, 10 U/mL choline oxidase, 0.01% Triton X-100) was added, and the mixture was reacted at room temperature for 10 min, and absorbance at 550-700 nm was measured. The choline concentration per reaction time was calculated from the difference between the absorbance after R^2 solution addition and prevalue measured before R^2 addition and used as ATX activity value. inhibitory activity (%)=100×{1−[choline concentration (μM) of test substance administration group/choline concentration (μM) of solvent control group]} <calculating formula>

human recombinant ATX = human recombinant ATX (Homo sapiens, UniProt Q13822); assay: Enzyme inhibition test (choline release from LPC, Amplex UltraRed fluorescence); assay type: biochemical; settings: 200 μM LPC substrate, 1 hr at room temperature, read-out: Experimental Example 1 human ATX IC50
Experimental: [Enzyme Inhibition Test Method]
A mixture (10 μL) of substrate and a set of choline quantification reagents (200 μM LPC (1-Oleoyl-sn-glycero-3-phosphocholine Sigma #L1881), 25 μM Amplex UltraRed reagent (Invitrogen), 0.1 U/mL Peroxidase (TOYOBO), 1 U/mL Choline oxidase (TOYOBO)), prepared with assay buffer (50 mM Tris (pH 8.0), 140 mM NaCl, 5 mM KCl, 1 mM CaCl2, 1 mM MgCl2, 0.1% BSA (Albumin from bovine serum, SIGMA), 0.0025% Triton X-100), enzyme (0.4 ng/μL human recombinant ATX) (10 μL), compound-containing solution (100 nL) were dispensed to a 384-well plate, incubated at room temperature for 1 hr and the fluorescence (Ex. 525 nm/Em. 598 nm) was measured. As the standard, choline chloride was used. With a blank free of enzyme was taken as inhibitory rate 100%, and a control free of inhibitor as inhibitory rate 0%, the inhibitory rate was calculated, and IC50 value was calculated from the inhibitory activity percentage at each concentration.

| Compound | Experimental Example 2 Rat single administration test (inhibitory activity (%) 8 hr after 1 mg/kg oral administration) (ATX activity in plasma) [%] | IC50 (human recombinant ATX) [nM] |
| --- | --- | --- |
| COc1ccc(-c2cncc(OCc3ccc(OC(F)(F)F)cc3)c2)cc1[C@@H]1C[C@H]1C(=O)O (relative stereo) [Example 2, trans-2-[2-methoxy-5-(5-{[4-(trifluoromethoxy)benzyl]oxy}pyridin-3-yl)phenyl]cyclopropanecarboxylic Acid] | 72 | 9 |
| COc1ccc(-c2cnnc(OC[C@H]3CC[C@H](C(F)(F)F)CC3)c2)cc1[C@@H]1C[C@H]1C(=O)O [Example 1-2, (1R,2R)-2-[2-methoxy-5-(6-{[trans-4-(trifluoromethyl)cyclohexyl]methoxy}pyridazin-4-yl)phenyl]cyclopropanecarboxylic Acid] | 93 | 5 |
| O=C(O)[C@@H]1C[C@H]1c1cccc(-c2cncc(OC[C@H]3CC[C@H](C(F)(F)F)CC3)c2)n1 [Example 8-2, (1R,2R)-2-(5′-{[trans-4-(trifluoromethyl)cyclohexyl]methoxy}-2,3′-bipyridin-6-yl)cyclopropanecarboxylic Acid] | 47 | 20 |
| O=C(O)[C@H]1C[C@@H]1c1cccc(-c2cncc(OC[C@H]3CC[C@H](C(F)(F)F)CC3)c2)n1 [Example 8-1, (1S,2S)-2-(5′-{[trans-4-(trifluoromethyl)cyclohexyl]methoxy}-2,3′-bipyridin-6-yl)cyclopropanecarboxylic Acid] | 92 | 2 |
| O=C(O)c1ccc2c(c1)CCN2c1cncc(OC[C@H]2CC[C@H](C(F)(F)F)CC2)c1 [Example 12, 1-(5-{[trans-4-(trifluoromethyl)cyclohexyl]methoxy}pyridin-3-yl)-2,3-dihydro-1H-indole-5-carboxylic Acid] | 76 | 1 |
| COc1ccc(-c2cncc(CCc3ccc(OC(F)(F)F)cc3)c2)nc1[C@H]1C[C@@H]1C(=O)O [Example 6, (1S,2S)-2-(5-methoxy-5′-{2-[4-(trifluoromethoxy)phenyl]ethyl}-2,3′-bipyridin-6-yl)cyclopropanecarboxylic Acid] | 71 | 4 |
| O=C(O)[C@@H]1C[C@H]1c1cc(-c2cncc(OC[C@H]3CC[C@H](C(F)(F)F)CC3)c2)ccn1 [Example 9-2, (1R,2R)-2-(5-{[trans-4-(trifluoromethyl)cyclohexyl]methoxy}-3,4′-bipyridin-2′-yl)cyclopropanecarboxylic Acid] | 94 | 3 |
| O=C(O)c1ccc2c(c1)CCN2c1cncc(OCC2CCN(CC(F)(F)F)CC2)c1 [Example 39] | 84 | 7 |
| COc1ccc(-c2cnnc(OCc3ccc(OC(F)(F)F)cc3)c2)nc1[C@H]1C[C@@H]1C(=O)O [Example 25] | 91 | 1 |

The remaining lines, values ahead:

| Experimental Example 2 Rat single administration test (inhibitory activity (%) 8 hr after 1 mg/kg oral administration) (ATX activity in plasma) [%] | IC50 (human recombinant ATX) [nM] | Compound |
| --- | --- | --- |
| 82 | 5 | COc1ccc(-c2cncc(OCc3ccc(OC(F)(F)F)cc3)c2)nc1[C@H]1C[C@@H]1C(=O)O [Example 26] |
| 89 | 19 | O=C(O)CC[C@H]1CN(c2cncc(OCc3ccc(OC(F)(F)F)cc3F)c2)CCO1 [Example 82] |
| 83 | 3 | O=C(O)/C=C/C[C@@H]1COCCN1c1cncc(OCc2ccc(OC(F)(F)F)cc2)c1 [Example 22-1, (2E)-4-[(3R)-4-(5-{[4-(trifluoromethoxy)benzyl]oxy}pyridin-3-yl)morpholin-3-yl]-2-butenoic Acid] |
| 83 | 11 | O=C(O)CCCC1CCCN1c1cncc(OCc2ccc(OC(F)(F)F)cc2)c1 (stereo not drawn) [Example 23, 4-[1-(5-{[4-(trifluoromethoxy)benzyl]oxy}pyridin-3-yl)pyrrolidin-2-yl]butanoic Acid] |
| 75 | 42 | O=C(O)CC[C@H]1CN(c2cncc(OCc3ccc(C(F)(F)F)cc3)c2)CCO1 [Example 15, 3-[(2S)-4-(5-{[4-(trifluoromethyl)benzyl]oxy}pyridin-3-yl)morpholin-2-yl]propanoic Acid] |
| 89 | 21 | O=C(O)CC[C@H]1CN(c2cncc(OCc3ccc(OC(F)(F)F)c(F)c3)c2)CCO1 [Example 84] |
| 89 | 13 | O=C(O)CC[C@H]1CN(c2cncc(OC[C@H]3CC[C@H](C(F)(F)F)CC3)c2)CCO1 [Example 16, 3-[(2S)-4-(5-{[trans-4-(trifluoromethyl)cyclohexyl]methoxy}pyridin-3-yl)morpholin-2-yl]propanoic Acid] |
| 74 | 2 | COc1cc(C2CN(c3cncc(OC[C@H]4CC[C@H](C(F)(F)F)CC4)c3)CCO2)ccc1C(=O)O (stereo partly drawn) [Example 46] |
| 80 | 3 | COc1ccc(-c2cncc(OCc3ccc(C(F)(F)F)cc3)c2)nc1[C@H]1C[C@@H]1C(=O)O [Example 29] |

Source: US11958812B2, “3, 5-disubstituted pyridine and 3, 5-disubstituted pyridazine derivatives and pharmaceutical use of same” (MITSUBISHI TANABE PHARMA CORPORATION, priority 2018, dated 2024)
